The source of these data is US20090181975A1, “NEBIVOLOL IN THE TREATMENT OF SEXUAL DYSFUNCTION” (FOREST LABORATORIES HOLDINGS LIMITED, priority 2008, published 2009).

One test relates to anesthetized rats. As to the kind of experiment: Mean arterial pressure (MAP) and heart rate (HR) in anesthetized rats. The class given is in vivo, rat (Sprague-Dawley). To be noted: nebivolol 3 mg/kg i.v.; L-NAME 3 mg/kg, ODQ 1 mg/kg, propranolol 1 mg/kg, sildenafil 0.3 mg/kg i.v.
Test [1] concerns nitrite plus nitrate (NOx) in rat serum. As to the kind of experiment: Serum nitrite plus nitrate (NOx) by Griess colorimetric method. The class given is in vivo. To be noted: nebivolol 3 mg/kg i.v.; L-NAME 3 mg/kg, ODQ 1 mg/kg, propranolol 1 mg/kg, sildenafil 0.3 mg/kg. The protocol: Total NO derivatives (nitrites plus nitrates) were measured in pre-filtered (10,000 MW pore size) serum samples from the studied rats by the Griess colorimetric method, using a commercial kit for nitrite and nitrate determination from Cayman Chemical Co. (Ann Arbor, Mich.). Serum concentrations of NOx were determined 10 minutes after nebivolol administration.
A general note: Griess reagent forms a coloured azo dye with nitrite.

The subject of the next test is cGMP in rat plasma. Put plainly: Plasma cGMP content by ELISA. To be noted: nebivolol 3 mg/kg i.v.; L-NAME 3 mg/kg, ODQ 1 mg/kg, propranolol 1 mg/kg. The class given is in vivo, rat (Sprague-Dawley). How it is done: To determine the plasma cGMP content, Sprague-Dawley rats were anesthetized with urethane (1.25 g/kg). The right carotid artery was catheterized for constant blood pressure and heart rate measurement by means of a pressure transducer connected to a PowerLab data acquisition system (ADInstruments). The left external jugular vein was catheterized for saline or drug infusion. After administering the respective treatments, rat plasma samples were collected, immediately frozen and stored at −80° C. until extraction for cyclic nucleotide assay. cGMP was determined by ELISA using a kit from Cayman Chemical Co. Plasmatic cGMP levels were determined 10 minutes after nebivolol administration.
For orientation: An ELISA detects its analyte on a solid surface through an enzyme-linked reagent.

In test [2] the test system is human corpus cavernosum (HCC) strips. Put plainly: Relaxation of human corpus cavernosum strips contracted with U46619. The class given is cell-based. To be noted: metoprolol 1 μM, atenolol 1 μM, nebivolol 0.3 μM. How it is done: Specimens of human corpus cavernosum were obtained from organ donors and from impotent men at the time of penile prosthesis implantation. Tissues were placed in ice-cold M-400 solution (pH 7.4; 400 mOsm/kg, composition in w/v: 4.19% manitol, 0.2% KH2PO4, 0.97% K2HPO4.3H2O, 0.11% KCl and 0.08% NaHCO3) at the time of removal and transported to the laboratory for utilization within 16 h. Strips of human corpus cavemosum were mounted on force transducers in 8 ml organ baths (37° C.) containing physiological salt solution (PSS) continuously bubbled with 95% O2/5% CO2 mixture to maintain a pH of 7.4. Strips were contracted with the thromboxane receptor agonist U46619 (1-3 nM) and relaxation responses were evaluated by cumulative additions of compounds to the chambers.

Test [3] concerns human penile resistance arteries (HPRA). Put plainly: Relaxation of human penile resistance arteries contracted with U46619 (myograph). Further details: effect on endothelium-dependent relaxation of HPRA caused by acetylcholine / effect on sildenafil-mediated relaxation of HPRA: unit of the concentration uncertain. The class given is cell-based. To be noted: metoprolol (1 (unit uncertain)), atenolol (1 (unit uncertain)), nebivolol (0.3 (unit uncertain)). The protocol:
Specimens of human corpus cavernosum were obtained from organ donors and from impotent men at the time of penile prosthesis implantation. Tissues were placed in ice-cold M-400 solution (pH 7.4; 400 mOsm/kg, composition in w/v: 4.19% manitol, 0.2% KH2PO4, 0.97% K2HPO4.3H2O, 0.11% KCl and 0.08% NaHCO3) at the time of removal and transported to the laboratory for utilization within 16 h.
To determine the resistance of penile small arteries, helicine arteries (lumen diameter 150-400 μm) which are the terminal branches of deep penile arteries, were dissected by carefully removing the adhering trabecular tissue, and arterial ring segments (2 mm long) were subsequently mounted on two 40 μm wires on microvascular double Halpern-Mulvany myographs (J.P. Trading, Aarhus, Denmark) for isometric tension recordings. The chambers were filled with PSS continuously bubbled with 95% O2/5% CO2 mixture to maintain a pH of 7.4. […]

Description for anesthetized rats: To determine blood pressure and heart rate, Sprague-Dawley rats (250-400 g) were anesthetized with ketolar and diazepam. The right carotid artery was catheterized for constant blood pressure and heart rate measurement by means of a pressure transducer connected to a PowerLab data acquisition system (ADInstruments). The left external jugular vein was catheterized for saline or drug infusion. 3 mg/kg nebivolol (n=6) or vehicle (50% glycofurol; n=4) was administered intravenously in anesthetized rats and MAP and HR were measured. […] The effect of nebivolol in combination with the type 5 phosphodiesterase (PDE-5) inhibitor sildenafil on hypotension and heart rate was studied in rats using the methods described above.

As to `O=c1onc2cnc3ccccc3n12` [ODQ, 1-H-(1,2,4)oxadiazolo(4,3-alpha)quinoxaline-1-one], in the test with anesthetized rats, the “effect on heart rate reduction caused by nebivolol” value is on record as “did not significantly modify” and the “effect on hypotension caused by nebivolol” value (from here on “effect on hypotension caused”) is “did not significantly modify”. Moreover, the “effect on nebivolol-induced increment in serum NOx” value in test [1] is given as “prevents this effect”. Also, in the test on cGMP in rat plasma, the “effect on nebivolol-induced increase in plasma cGMP” value is given as “slightly reduced”.
For the compound `CC(C)NCC(O)COc1cccc2ccccc12` (stereo not shown) [propranolol], in the test on anesthetized rats, the “effect on heart rate reduction caused by nebivolol” value is on record as “significantly reduced the impact” and the “effect on hypotension caused” value is “without affecting”. In the test with cGMP in rat plasma, the “effect on nebivolol-induced increase in plasma cGMP” value is “not influenced”.
As for `COC(=O)[C@@H](N)CCCNC(=N)N[N+](=O)[O-]` [L-NAME, Nω-nitro-L-arginine methyl ester], in the test with anesthetized rats, the “effect on heart rate reduction caused by nebivolol” value is recorded as “did not affect” and the “effect on hypotension caused” value is recorded as “significantly reduced”. For the same compound, the “effect on nebivolol-induced increment in serum NOx” value in test [1] is “prevents this effect”. In addition, the “effect on nebivolol-induced increase in plasma cGMP” value in the test with cGMP in rat plasma is “slightly reduced”.
Consider `COCCc1ccc(OCC(O)CNC(C)C)cc1` (stereo not shown) [metoprolol], for which the “effect on acetylcholine-induced endothelium-dependent relaxation of HCC strips” value in test [2] was “not significantly modified”. The “effect on endothelium-dependent relaxation of HPRA caused by acetylcholine” value in test [3] is on record as “not affected”.
